Measurements: patent US20210137126A1, “USE OF PEPTIDES AS IN[…]” (INSTITUT NATIONAL DES SCIENCES APPLIQUEES DE LYON, priority 2018, published 2021)

Tested on: pea aphid Acyrthosiphon pisum
Test: Insecticide test: ingestion of the peptide in artificial medium by pea aphid larvae, mortality monitored over 7 days
Type: in vivo
Settings: for TL50 (lethal time at which mortality of individuals is 50%): survival analysis, normal logarithmic adjustment
Experimental: The experiments were carried out on aphids from the parthenogenetic clone of the pea aphid LL01 which contained only the primary symbiont B. aphidicola. The aphids were bred and kept on feva bean plants (Vicia faba L., Aquadulce variety) under climate-controlled conditions (temperature 21±1° C., relative humidity 70%, photoperiod of 16 h), in order to obtain aphids which reproduced solely by viviparous parthenogenesis. In order to reduce the variability linked to the use of individuals at different stages of development, the aphids were obtained from a synchronized brood. For this, adult aphids that were ready to lay were placed on feva bean plants. […] The manipulation was carried out with a negative control composed solely of artificial medium and a positive control representing one of the concentrations of the range being studied with the aphids. The range being studied comprised different media containing the BCR4 peptide studied at various concentrations which varied from 5 to 80 μM. The experiments were carried out on thirty larvae per condition divided into three distinct groups of ten individuals.
All of the data regarding the mortality of the aphids were analyzed statistically by standard survival processing. All of the BCR4 concentrations were analyzed separately in a parametric survival analysis with a normal logarithmic adjustment.
The measurement of the insecticidal activity of BCR4 was carried out by incorporating increasing doses of peptides into the nutrient medium for the aphids and monitoring of their mortality was carried out over 7 days.

Sequence: DFDPTEFKGPFPTIEICSKYCAVVCNYTSRPCYCVEAAKERDQWFPYCYD (listed as Acyrthosiphon pisum) [BCR4, Bacteriocyte Cysteine Rich peptide of Acyrthosiphon pisum]
- TL50 (lethal time at which mortality of individuals is 50%) (BCR4 concentration 5 μM in artificial medium): >20 days
- TL50 (lethal time at which mortality of individuals is 50%) (BCR4 concentration 10 μM in artificial medium): 11.3 days
- TL50 (lethal time at which mortality of individuals is 50%) (BCR4 concentration 20 μM in artificial medium): 3.48 days
- TL50 (lethal time at which mortality of individuals is 50%) (BCR4 concentration 27.5 μM in artificial medium): 3.24 days
- TL50 (lethal time at which mortality of individuals is 50%) (BCR4 concentration 35 μM in artificial medium): 1.94 days
- TL50 (lethal time at which mortality of individuals is 50%) (BCR4 concentration 40 μM in artificial medium): 1.76 days
- TL50 (lethal time at which mortality of individuals is 50%) (BCR4 concentration 80 μM in artificial medium): 1.16 days
- mortality at onset of the dose-response effect (from the first day following ingestion): high mortality
- dose-response over the survival time for the aphids (increasing doses 5 to 80 μM, mortality monitored over 7 days): very significant dose-response
- range of activity (insecticidal) (pea aphid, peptide in nutrient medium): 5 to 80 µM
